What was measured:
Experiment in all cases: Wood preservation test ES 84/113, pine sapwood, weight loss of wood samples
Assay type in all cases: cell-based
[1] = tested on: Poria plazenta; details: substance alone
Experimental: (§1) Determination of the Activity of the Cyproconazole in Combination with Dimethyldidecylammonium Chloride Against Wood-destroying Basidiomycetes
(§2) The active substances were tested in accordance with European Testing Standards ES 84 (1979) and 113 (1986). Treatment with the active substances prevents the wood from being destroyed. The effect of the treatment is quantified indirectly via the non-existing weight loss of the wood samples.
(§3) The wood sample used was pine sapwood, and the test fungi used were Coniophora puteana (cellar fungus), Poria plazenta, Gloeophyllum trabeum and Trametes (Coriolus) versicolor. Markedly smaller amounts of the combination according to the invention of cyproconazole (A: 2-(4-chlorophenyl)-3-cyclopropyl-3-methyl-1-(1H,1,2,4-triazol-1-yl)-butan-2-ol) and dimethyldidecylammonium chloride (B1) have the same result (0% weight loss) as cyproconazole or B1 alone. Comparably good results were also obtained when beech was used as the wood sample.

[2] = tested on: Coniophora puteana (cellar fungus); details: substance alone
Experimental: as §1, §2, §3

[3] = tested on: Trametes (Coriolus) versicolor; details: substance alone
Experimental: as §1, §2, §3

[4] = tested on: Gloeophyllum trabeum; details: Gloephyllum, substance alone
Experimental: as §1, §2, §3

| SMILES | Amount (g/m^3) of active Substance at 0% Weight Loss [1] | Amount (g/m^3) of active Substance at 0% Weight Loss [2] | Amount (g/m^3) of active Substance at 0% Weight Loss [3] | Amount (g/m^3) of active Substance at 0% Weight Loss [4] |
| --- | --- | --- | --- | --- |
| CC(C1CC1)C(O)(Cn1cncn1)c1ccc(Cl)cc1 (centres unmarked) [A] | 243 g g/m^3 | 247 g g/m^3 | 418 g g/m^3 | 247 g g/m^3 |
| CCCCCCCCCC[N+](C)(C)CCCCCCCCCC.[Cl-] [B1, dimethyldidecylammonium chloride] | 3,175 g g/m^3 | 12,415 g g/m^3 | 2,675 g g/m^3 | 12,505 g g/m^3 |
